According to patent US20210290680A1, “METHODS AND COMPOSITIONS FOR MODULATING CELLULAR AGING” (Dorian Therapeutics, Inc., priority 2019, published 2021):

Assays:
[1] = test system: primary T cells; assay: T cell expansion / proliferation by Trypan Blue cell counts; assay type: cell-based, human; conditions: day 15 post-activation
Experimental: On Day 0, buffycoats were obtained by a clinical facility, and PBMCs were isolated by density centrifugation using Ficoll™. CD3 enrichment was performed using magnetic beads, PanT cell isolation from Myltenyi Biotec. The T cells were activated with aCD^3/aCD28 Dynabeads (3:1 ratio).
On Day 2, a first round of transduction was performed with lentivirus. On Day 3, a second round of transduction was performed with lentivirus.
On Day 6, the beads were removed. On Day 6-8, Flow cytometry sorting was performed with a FACSAria II (BD).
The cells were cultured in RPMI, 10% FBS, penicillin-streptomycin, and 100IU of IL-2. Cells were plated at a density of 0.3×10^6 cells/ml until day 15, then 0.5×10^6 cells/ml and after day 25 at 1×10^6 cells/ml.
A short hairpin RNA (shRNA) directed against USP16 (shUSP16) was purchased from Dharmacon. […] Between 0.15 and 0.5×10^6 cells were plated post-sorting with a purity higher than 90% and counted every 2-4 days by Trypan Blue exclusion using Vi-CELL XR cell counter (Beckman Coulter). Proliferation was measured as expansion ratio compared to the initial cell seeding. […]
A new set of shRNAs were cloned into the pSIH backbone, where the shRNA expression is driven by the H1 promoter. […] Proliferation was measured as fold increased compared to shControl at day 15 post-activation. […]

[2] = test system: NALM cells; assay: Re-challenge cytotoxicity assay, CD19.CAR T cells; assay type: cell-based, human; conditions: after double tumor-challenge, n=3
Experimental: Primary T cells were activated as described (Example 3), transduced with a lentivirus encoding for either a CD19.CAR or a GD2.CAR co-expressing shUSP16 #1, shUSP16 #2 or a scrambled shRNA (Control). Cells were cultured in IL-2 and sorted between days 6-13 for EGFRt. At day 16 cytotoxicity assays were performed. Briefly, cells were counted and 100,000 T cells (adjusted for EGFR expression) were plated at 1:5 Effector:Target (E:T) ratio. At 72 hours, the mixture of tumor cells and T cells were collected, stained for CD3-PE, CD8-BV510, CD19- or GD2-APC, EGFR-AF488 and Sytox and counted by flow cytometry (MACSQuant, Miltenyi Biotec) (FIGS. 30A and 30B). Counting beads (CountBright Absolute Counting beads, Invitrogen) were added before acquisition and absolute number was calculated as following (number of cell events/number of bead events)×(assigned bead count of the lot (beads/50 ul)/volume of sample (ul))=concentration of sample as cells/ul). NALM cells were used as target cells for CD19.CAR T cells and CHLA-55 cells were used as target for GD2.CAR T cells. Three different primary T cell cultures were tested for CD19 and GD2 CAR.
At day 16, regular cytotoxicity assays were also performed (Example 22). Three days post-antigen stimulation, CD19.CAR T cells were stained for EGFR-AF488 (R&D), CD3-PE, CD8-BV510, PD-1-Allophycocyanin and Lag-3 and CTLA4 (Biolegend) and acquired by MACSQuant (Miltenyi Biotec). The co-cultures we also re-challenged with the addition of fresh tumor cells. T cell killing and expansion upon double tumor-challenge was assessed after three days.

Substance	proliferation, fold increased compared to shControl [1]	T cell number [2]	residual tumor cells (NALM) [2]
shUSP16 #1: shRNA targeting USP16, 5′-GACTGTAAGACTGACAATAAA-3′ (SEQ ID NO: 8), pSIH backbone or co-expressed in CAR plasmid	about 1.31 folds	192643	282761
shUSP16 #2: shRNA targeting USP16, 5′-TATATCAGTTCACCCGTAAT-3′ (SEQ ID NO: 9), pSIH backbone or co-expressed in CAR plasmid	~2.33 folds	204291	160874
